From PMC6522510 (Nature Communications, 2019)

What was measured:
Set-up in all cases: species or system AML cell lines (8); Primary HTS, single concentration about 10 uM, Cell Titer Glo viability; log10 luminescence, per cent inhibition relative to cycloheximide control
Conditions in all cases: 72 h, relative to cycloheximide control, log10 luminescence; inhibitor
M07e = test system: M07e
U937 = test system: U937
CMK = test system: CMK
ML-2 = test system: ML-2
MV4-11 = test system: MV4-11
CHRF288-11 = test system: CHRF288-11
MOLM-13 = test system: MOLM-13
CMS = test system: CMS

SMILES	M07e %inh (M07e) [%]	U937 %inh (U937) [%]	CMK %inh (CMK) [%]	ML-2 %inh (ML-2) [%]	MV4-11 %inh (MV4-11) [%]	CHRF288-11 %inh (CHRF288-11) [%]	MOLM-13 %inh (MOLM-13) [%]	CMS %inh (CMS) [%]
c1ccc(-c2n[nH]cc2-c2ccnc(-c3ccc(OCCN4CCOCC4)cc3)c2)nc1 [SJ000573279-1, FVLN/241/86/2]	-4.621	-1.579	0.1656	-0.6736	1.132	1.18	4.641	-2.932
CN(c1ccc(NC(=O)Nc2ccc(OC(F)(F)F)cc2)cc1)c1ccnc(Nc2cccc(S(N)(=O)=O)c2)n1 [SJ000573281-1, U17983/20/3]	21.34	20.62	57.59	11.59	82.54	54	77.33	4.771
N#Cc1c(NC(=O)c2ccc(F)cc2)sc2c1CCCC2 [SJ000573282-1, R15619/128/1]	6.55	2.356	5.634	2.372	-0.9119	20.67	3.13	0.2829
Cc1c2ccc(N(C)c3ccnc(Nc4cccc(S(N)(=O)=O)c4)n3)cc2nn1C [SJ000573283-1, U17574/40/1]	4.447	17.32	33.97	3.984	13.33	6.19	26.58	2.522
COc1cc2c(cc1Nc1nc(Nc3cccc(F)c3C(N)=O)c3cc[nH]c3n1)N(C(=O)CN1CCN(C(C)C)CC1)CC2 [SJ000573284-1, U23773/22/1]	-2.07	-4.151	28.42	60.74	-1.565	156	110	4.776
COC(=O)Nc1nc2ccc(Oc3ccc(NC(=O)Nc4cc(C(F)(F)F)ccc4F)cc3)cc2s1 [SJ000573286-1, T277/77/2]	9.62	-3.236	4.078	3.773	23.01	2.804	27.47	-2.124
Nc1nc(-c2cccc(Cl)c2)c(-c2ccc3ncccc3n2)s1 [SJ000573287-1, FTTA/246/163/2]	1.682	-2.159	-4.613	2.244	-3.034	1.906	-0.7857	0.5039
Cc1nnc(-c2cccc(-c3ccc(C(=O)NCC4CC4)cc3)c2)o1 [SJ000573288-1, N5058-19-3]	0.8786	-1.478	3.578	2.007	-0.4477	-4.251	2.072	-1.146
CN(C)CCOc1ccc(-c2nc(-c3ccncc3)c(-c3ccc4c(c3)CC/C4=N\O)[nH]2)cc1 [SJ000573289-1, MM206071-092A1 | SB590885]	3.647	1.485	-1.288	-1.225	2.418	9.844	11.69	1.753
COc1ccc(COc2ccc(Cc3cnc(N)nc3N)cc2OC)cc1 [SJ000573290-1, U22490/41/5 | GW2580 | CFMS RECEPTOR TYROSINE KINASE INHIBITOR | CSF-1 RECEPTOR INHIBITOR | GW-2580 | GW2580]	0.1702	5.457	9.776	2.578	1.548	2.429	5.043	-2.221
CCS(=O)(=O)c1ccc(OC)c(Nc2ncc(-c3ccccc3Cl)o2)c1 [SJ000573291-1, U15747/47/1]	-1.838	1.267	-1.56	-1.239	15.16	-4.64	-0.8597	-1.399
COc1cc2ncn(-c3cc(OCc4ccccc4C(F)(F)F)c(C(C)=O)s3)c2cc1OC [SJ000573292-1, U22436/134/1]	-3.084	-1.322	-1.073	-2.426	-4.181	-3.203	-1.507	0.7881
Cc1cccc(-c2n[nH]cc2-c2ccc3ncccc3n2)n1 [SJ000573293-1, FFJG/252/112/1 | REPSOX]	-1.053	6.099	1.842	2.229	1.439	4.75	-2.402	2.179
Nc1nc(-c2ccc3c(c2)C(=Cc2cc(Br)c(O)c(Br)c2)C(=O)N3)cs1 [SJ000573294-1, U11298/118/1]	2.045	-1.497	-5.127	0.7137	-2.964	13.11	-2.176	1.564
COc1cc2ncn(-c3cc(OCc4ccccc4S(C)(=O)=O)c(C#N)s3)c2cc1OC [SJ000573295-1, U24235/171/40 | IKK-3 INHIBITOR IX | CAY10576]	3.197	1.496	-4.233	2.593	0.8968	3.431	-1.258	-0.09194
COc1ccc(-c2oc3ncnc(N)c3c2-c2ccc(NC(=O)Nc3cc(C(F)(F)F)ccc3F)cc2)cc1 [SJ000573296-1, T299/60/1]	-1.472	-2.62	1.218	0.8185	5.923	-2.7	23.97	0.08626
CCCN1CCC(Oc2cc(Nc3nc(Nc4cccc(F)c4C(N)=O)c4cc[nH]c4n3)c(OC)cc2Cl)CC1 [SJ000573297-1, U23772/200/1]	3.715	0.7849	2.381	2.245	-2.06	4.97	2.944	-0.1818
COc1cc(N2CCN(C(C)C)CC2)ccc1Nc1nc(Nc2ccc(F)cc2C(N)=O)c2cc[nH]c2n1 [SJ000573298-1, U22490/47/4]	44.9	43.61	61.83	34.55	68.67	127	113.4	47.53
